Source: ChEMBL document CHEMBL3046076, “3D-QSAR CoMFA and CoMSIA studies on a set of diverse 1a-adrenergic receptor antagonists” (Med Chem Res, 2011)

biological target: T1, Alpha-1A adrenergic receptor (Homo sapiens, UniProt P35348); test: Binding affinity to adrenergic alpha1A receptor (unknown origin); conditions: read-out: Ki
T1 sequence (P35348 whole entry): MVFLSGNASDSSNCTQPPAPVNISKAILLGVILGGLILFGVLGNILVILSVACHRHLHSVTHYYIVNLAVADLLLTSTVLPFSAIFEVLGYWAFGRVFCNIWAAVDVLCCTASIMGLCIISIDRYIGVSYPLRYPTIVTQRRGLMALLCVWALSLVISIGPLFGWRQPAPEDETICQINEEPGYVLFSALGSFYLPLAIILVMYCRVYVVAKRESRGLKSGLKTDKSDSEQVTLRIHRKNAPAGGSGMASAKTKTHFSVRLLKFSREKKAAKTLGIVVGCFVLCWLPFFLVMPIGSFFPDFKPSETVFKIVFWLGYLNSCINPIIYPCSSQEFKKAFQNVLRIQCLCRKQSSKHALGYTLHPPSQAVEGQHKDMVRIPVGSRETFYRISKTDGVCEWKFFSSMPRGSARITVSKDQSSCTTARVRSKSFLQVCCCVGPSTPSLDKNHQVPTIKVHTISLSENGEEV

SMILES	Ki
COc1cc2nc3c(c(N)c2cc1OC)CC(CNC(=O)c1ccoc1)C3 (stereo unspecified)	158 nM
c1ccc(OCCNC2COC(c3ccccc3)(c3ccccc3)CO2)cc1 (stereo unspecified)	224 nM
O=C1CC2(C=CN1CCN1CCN(c3ccccc3Cl)CC1)CCCC2	43.1 nM
Cc1ccc(C)c(N2CCN(CCN3C(=O)CC4(CCCC4)CC3=O)CC2)c1	95.4 nM
c1ccc(OCCNC2COCC(c3ccccc3)(c3ccccc3)O2)cc1 (stereo unspecified)	170 nM
C[N+](C)(CCOc1ccccc1)CC1COC(c2ccccc2)(c2ccccc2)O1 (stereo unspecified)	24.5 nM
COc1ccccc1N1CCN(CC2COC3(CCCCC3)O2)CC1 (stereo unspecified)	91.2 nM
COc1cccc(OC)c1OCCNC[C@@H]1C(=O)c2ccccc2C[C@H]1c1ccccc1	8.7 nM
CC(CN1CCN(c2cc(Cl)ccc2Cl)CC1)N1C(=O)CC2(CCCC2)CC1=O (stereo unspecified)	149 nM
CC(C)Oc1ccccc1N1CCN(CCN2C(=O)CC3(CCCC3)CC2=O)CC1	2.83 nM
O=C1CC2(CCCC2)CC(=O)N1CCN1CCN(c2cc(F)ccc2Cl)CC1	86.2 nM
COc1ccccc1N1CCN(CC(O)COc2cccc3ccccc23)CC1 (stereo unspecified) [NAFTOPIDIL]	5.88 nM
COc1ccccc1N1CCN(CCN2C=CC3(CCCC3)CC2=O)CC1	23.4 nM
Cc1ccc(Cl)c(N2CCN(CCN3C(=O)CC4(CCCC4)CC3=O)CC2)c1	100 nM
COc1cc2nc3c(c(N)c2cc1OC)CCC(CNCOc1c(OC)cccc1OC)C3 (stereo unspecified)	1700 nM
COc1cccc(OC)c1OCCN[C@H]1C[C@@H](c2ccccc2)c2ccccc2S1	0.08 nM
COc1cccc(OC)c1OCCN[C@H]1COC[C@H](c2ccccc2)O1	468 nM
COc1cccc(OC)c1OCCN[C@H]1C[C@H](c2ccccc2)c2ccccc2S1	2.34 nM

SMILES	Ki
COc1cccc(OC)c1OCCN[C@H]1CO[C@H](c2ccccc2)CO1	513 nM
COc1cc2nc3c(c(N)c2cc1OC)CCC(CNC(=O)c1ccoc1)C3 (stereo unspecified)	95.5 nM
O=C1CC2(CCCC2)CC(=O)N1CCN1CCN(c2ccccc2)CC1	2680 nM
O=C1CC2(CCCC2)CCN1CCN1CCN(c2ccccc2Cl)CC1	70 nM
CN(CCOc1ccccc1)CC1COC(c2ccccc2)(c2ccccc2)O1 (stereo unspecified)	33.9 nM
O=C1CC2(CCCC2)C(=O)N1CCN1CCN(c2cc(Cl)ccc2Cl)CC1	54.6 nM
O=C1CC2(CCCC2)CC(=O)N1CCN1CCCN(c2ccccc2Cl)CC1	236 nM
c1ccc(OCCN[C@H]2COC[C@H](c3ccccc3)O2)cc1	407 nM
c1ccc(OCCN[C@H]2CO[C@H](c3ccccc3)CO2)cc1	537 nM
O=C1CC2(CCCC2)CC(=O)N1CCCCN1CCN(c2cc(Cl)ccc2Cl)CC1	1.45 nM
COc1cccc(OC)c1OCCNC1COCC(c2ccccc2)(c2ccccc2)O1 (stereo unspecified)	339 nM
COc1ccccc1N1CCN(CC2CO[C@H](c3cccc4ccccc34)O2)CC1 (stereo partly specified)	7.94 nM
N#Cc1ccc(Cl)cc1N1CCN(CCN2C(=O)CC3(CCCC3)CC2=O)CC1	403 nM
COc1cccc(OC)c1OCCN[C@H]1C[C@@H](c2ccccc2)c2ccccc2O1	0.05 nM
COc1ccccc1N1CCN(CC2CO[C@H](c3ccccc3)O2)CC1 (stereo partly specified)	28.8 nM
N#Cc1ccccc1N1CCN(CCN2C(=O)CC3(CCCC3)CC2=O)CC1	171 nM
COc1ccccc1OCCNC1COC(c2ccccc2)(c2ccccc2)CO1 (stereo unspecified)	74.1 nM
COc1ccccc1N1CCN(CC2CO[C@@H](c3cccc4ccccc34)O2)CC1 (stereo partly specified)	36.3 nM

same assay, conditions: read-out: pKi (converted)

SMILES	Ki
O=C1CC2(C=CN1CCN1CCN(c3ccccc3Cl)CC1)CCCC2	43.7 nM
CC(CN1CCN(c2cc(Cl)ccc2Cl)CC1)N1C(=O)CC2(CCCC2)CC1=O (stereo unspecified)	151 nM
COc1cccc(OC)c1OCCN[C@H]1C[C@@H](c2ccccc2)c2ccccc2S1	0.0891 nM
COc1cc2nc3c(c(N)c2cc1OC)CCC(CNC(=O)c1ccoc1)C3 (stereo unspecified)	2570 nM
N#Cc1ccc(Cl)cc1N1CCN(CCN2C(=O)CC3(CCCC3)CC2=O)CC1	407 nM
